Assay results from US9340537B2, “Benzamide derivatives for inhibiting the activity of ABL1, ABL2 and BCR-ABL1” (NOVATIS AG, priority 2012, dated 2016).
Blank lines part the entries; values can stand above or below the compound they belong to.

How the values were obtained:
ABL1 (64-515) [1] = biological target: T1, ABL1 (64-515) (Homo sapiens (Human), UniProt P00519); experiment: Radio ABL1 (64-515) radiometric filter-binding kinase assay; format: biochemical; details: 20 μM ATP
ABL1 (64-515) [2] = biological target: T1, ABL1 (64-515); experiment: Caliper ABL1 (64-515) microfluidic mobility shift kinase assay; details: read-out: Caliper ABL1 (64-515) IC50

T1 sequence (P00519 64-515): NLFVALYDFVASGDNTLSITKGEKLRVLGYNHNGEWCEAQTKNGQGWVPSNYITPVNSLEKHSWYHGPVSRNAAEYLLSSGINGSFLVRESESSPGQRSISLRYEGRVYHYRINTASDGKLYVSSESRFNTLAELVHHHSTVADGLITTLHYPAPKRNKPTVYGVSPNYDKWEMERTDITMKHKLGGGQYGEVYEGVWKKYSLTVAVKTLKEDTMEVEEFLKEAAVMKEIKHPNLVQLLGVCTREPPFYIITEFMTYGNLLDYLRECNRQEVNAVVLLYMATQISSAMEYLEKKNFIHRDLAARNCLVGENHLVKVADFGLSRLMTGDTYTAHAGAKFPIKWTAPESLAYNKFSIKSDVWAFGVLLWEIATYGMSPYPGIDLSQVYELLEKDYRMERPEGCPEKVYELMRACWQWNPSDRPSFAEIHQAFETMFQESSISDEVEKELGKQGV

Structure (SMILES): N[C@@H]1CN(c2ncc(C(=O)Nc3ccc(OC(F)(F)Cl)cc3)cc2-c2ccn[nH]2)C[C@H]1F (relative stereo) [Example 52, 6-(trans-3-Amino-4-fluoropyrrolidin-1-yl)-N-(4-(chlorodifluoromethoxy)phenyl)-5-(1H-pyrazol-5-yl)nicotinamide]
IC50 (ABL1 (64-515) [1]): 3 nM | IC50 (ABL1 (64-515) [2]): 3.4 nM

Structure (SMILES): O=C(Nc1ccc(OC(F)(F)F)cc1)c1cnc(N2CC[C@@H](O)C2)c(-c2cnoc2)c1 [Example 8, (R)-6-(3-Hydroxypyrrolidin-1-yl)-5-(isoxazol-4-yl)-N-(4-(trifluoromethoxy)phenyl)nicotinamide]
IC50 (ABL1 (64-515) [1]): 9 nM

Structure (SMILES): O=C(Nc1ccc(OC(F)(F)F)cc1)c1cnc(N2CC[C@@H](O)C2)c(-c2csc(CO)c2)c1 [Example 12, (R)-5-(5-(Hydroxymethyl)thiophen-3-yl)-6-(3-hydroxypyrrolidin-1-yl)-N-(4-(trifluoromethoxy)phenyl)nicotinamide]
IC50 (ABL1 (64-515) [1]): < 3 nM

Structure (SMILES): O=C(Nc1ccc(OC(F)(F)F)cc1)c1cnc(N2CCCC2)c(-c2ccn[nH]2)c1 [Example 15, 5-(1H-Pyrazol-5-yl)-6-(pyrrolidin-1-yl)-N-(4-(trifluoromethoxy)phenyl)nicotinamide]
IC50 (ABL1 (64-515) [1]): < 3 nM | IC50 (ABL1 (64-515) [2]): 0.8 nM

Structure (SMILES): Cc1ncc(-c2cc(C(=O)Nc3ccc(OC(F)(F)F)cc3)cnc2N2CC[C@H](CO)C2)s1 [Example 16, (S)-6-(3-(Hydroxymethyl)pyrrolidin-1-yl)-5-(2-methylthiazol-5-yl)-N-(4-(trifluoromethoxy)phenyl)nicotinamide]
IC50 (ABL1 (64-515) [1]): < 3 nM | IC50 (ABL1 (64-515) [2]): 1.1 nM

Structure (SMILES): O=C(Nc1ccc(OC(F)(F)F)cc1)c1cnc(N2CCOCC2)c(-c2ccn[nH]2)c1 [Example 18, 6-Morpholino-5-(1H-pyrazol-5-yl)-N-(4-(trifluoromethoxy)phenyl)nicotinamide]
IC50 (ABL1 (64-515) [1]): 5 nM | IC50 (ABL1 (64-515) [2]): 6.5 nM

Structure (SMILES): CN(CCO)c1ncc(C(=O)Nc2ccc(OC(F)(F)Cl)cc2)cc1-c1ccn[nH]1 [Example 23, N-(4-(Chlorodifluoromethoxy)phenyl)-6-((2-hydroxyethyl)(methyl)amino)-5-(1H-pyrazol-5-yl)nicotinamide]
IC50 (ABL1 (64-515) [1]): 2.7 nM | IC50 (ABL1 (64-515) [2]): 3.4 nM

Structure (SMILES): O=C(Nc1ccc(SC(F)(F)F)cc1)c1cnc(N2CC[C@@H](O)C2)c(-c2ccc[nH]2)c1 [Example 25, (R)-6-(3-Hydroxypyrrolidin-1-yl)-5-(1H-pyrrol-2-yl)-N-(4-((trifluoromethyl)thio)phenyl)nicotinamide]
IC50 (ABL1 (64-515) [1]): 3.7 nM | IC50 (ABL1 (64-515) [2]): 2.6 nM

Structure (SMILES): CN(CCO)c1ncc(C(=O)Nc2ccc(SC(F)(F)F)cc2)cc1-c1ccn[nH]1 [Example 26, 6-((2-Hydroxyethyl)(methyl)amino)-5-(1H-pyrazol-5-yl)-N-(4-((trifluoromethyl)thio)phenyl)nicotinamide]
IC50 (ABL1 (64-515) [1]): 11 nM | IC50 (ABL1 (64-515) [2]): 1 nM

Structure (SMILES): O=C(Nc1ccc(OC(F)(F)F)cc1)c1cnc(N2CCCC2)c(-c2cc(CO)n[nH]2)c1 [Example 43, 5-(3-(Hydroxymethyl)-1H-pyrazol-5-yl)-6-(pyrrolidin-1-yl)-N-(4-(trifluoromethoxy)phenyl)nicotinamide]
IC50 (ABL1 (64-515) [2]): 3.3 nM

Structure (SMILES): O=C(Nc1ccc(OC(F)(F)Cl)cc1)c1cnc(N2CCC(F)(F)C2)c(-c2ccn[nH]2)c1 [Example 48, N-(4-(Chlorodifluoromethoxy)phenyl)-6-(3,3-difluoropyrrolidin-1-yl)-5-(1H-pyrazol-5-yl)nicotinamide]
IC50 (ABL1 (64-515) [1]): 5.5 nM

Structure (SMILES): O=C(Nc1ccc(OC(F)(F)Cl)cc1)c1cnc(N2CCC3(CNC3)C2)c(-c2ccn[nH]2)c1 [Example 50, N-(4-(Chlorodifluoromethoxy)phenyl)-5-(1H-pyrazol-5-yl)-6-(2,6-diazaspiro[3.4]octan-6-yl)nicotinamide]
IC50 (ABL1 (64-515) [1]): 1.3 nM

Structure (SMILES): NCC1(O)CCN(c2ncc(C(=O)Nc3ccc(OC(F)(F)Cl)cc3)cc2-c2ccn[nH]2)C1 (stereo not shown) [Example 83, 6-(3-(Aminomethyl)-3-hydroxypyrrolidin-1-yl)-N-(4-(chlorodifluoromethoxy)phenyl)-5-(1H-pyrazol-5-yl)nicotinamide]
IC50 (ABL1 (64-515) [2]): 0.4 nM

Structure (SMILES): O=C(O)CCNc1ncc(C(=O)Nc2ccc(OC(F)(F)Cl)cc2)cc1-c1ccn[nH]1 [Example 94, 3-((5-((4-(Chlorodifluoromethoxy)phenyl)carbamoyl)-3-(1H-pyrazol-5-yl)pyridin-2-yl)amino)propanoic acid]
IC50 (ABL1 (64-515) [2]): 23 nM

Structure (SMILES): O=C(O)CCNc1ncc(C(=O)Nc2ccc(OC(F)(F)F)cc2)cc1-c1ccn[nH]1 [Example 95, 3-((3-(1H-Pyrazol-5-yl)-5-((4-(trifluoromethoxy)phenyl)carbamoyl)pyridin-2-yl)amino)propanoic acid]
IC50 (ABL1 (64-515) [2]): 47 nM

Structure (SMILES): O=C(Nc1ccc(OC(F)(F)Cl)cc1)c1cnc(NCCC(O)C(=O)O)c(-c2ccn[nH]2)c1 (stereo not shown) [Example 96, 4-((5-((4-(Chlorodifluoromethoxy)phenyl)carbamoyl)-3-(1H-pyrazol-5-yl)pyridin-2-yl)amino)-2-hydroxybutanoic acid]
IC50 (ABL1 (64-515) [2]): 5.3 nM

Structure (SMILES): O=C(Nc1ccc(OC(F)(F)Cl)cc1)c1cnc(NCC(O)CCO)c(-c2ccn[nH]2)c1 (stereo not shown) [Example 97, N-(4-(Chlorodifluoromethoxy)phenyl)-6-((2,4-dihydroxybutyl)amino)-5-(1H-pyrazol-5-yl)nicotinamide]
IC50 (ABL1 (64-515) [2]): 5.7 nM

Structure (SMILES): O=C(Nc1ccc(OC(F)(F)Cl)cc1)c1cnc(NC[C@@H](O)CCO)c(-c2ccn[nH]2)c1 [Example 98, (S)—N-(4-(Chlorodifluoromethoxy)phenyl)-6-((2,4-dihydroxybutyl)amino)-5-(1H-pyrazol-5-yl)nicotinamide]
IC50 (ABL1 (64-515) [2]): 5.7 nM

Structure (SMILES): O=C(Nc1ccc(OC(F)(F)Cl)cc1)c1cnc(NC[C@H](O)CCO)c(-c2ccn[nH]2)c1 [Example 99, (R)—N-(4-(Chlorodifluoromethoxy)phenyl)-6-((2,4-dihydroxybutyl)amino)-5-(1H-pyrazol-5-yl)nicotinamide]
IC50 (ABL1 (64-515) [2]): 5.1 nM

Structure (SMILES): O=C(Nc1ccc(OC(F)(F)Cl)cc1)c1cnc(NCCC(O)CO)c(-c2ccn[nH]2)c1 (stereo not shown) [Example 100, N-(4-(Chlorodifluoromethoxy)phenyl)-6-((3,4-dihydroxybutyl)amino)-5-(1H-pyrazol-5-yl)nicotinamide]
IC50 (ABL1 (64-515) [2]): 6.6 nM

Structure (SMILES): O=C(Nc1ccc(OC(F)(F)Cl)cc1)c1cnc(NCC[C@H](O)CO)c(-c2ccn[nH]2)c1 [Example 101, (S)—N-(4-(Chlorodifluoromethoxy)phenyl)-6-((3,4-dihydroxybutyl)amino)-5-(1H-pyrazol-5-yl)nicotinamide]
IC50 (ABL1 (64-515) [2]): 7.8 nM

Structure (SMILES): O=C(Nc1ccc(OC(F)(F)Cl)cc1)c1cnc(NCC[C@@H](O)CO)c(-c2ccn[nH]2)c1 [Example 102, (R)—N-(4-(Chlorodifluoromethoxy)phenyl)-6-((3,4-dihydroxybutyl)amino)-5-(1H-pyrazol-5-yl)nicotinamide]
IC50 (ABL1 (64-515) [2]): 13 nM

Further lines, results first:

IC50 (ABL1 (64-515) [1]): 4 nM | IC50 (ABL1 (64-515) [2]): 4.2 nM
Structure (SMILES): CO[C@H]1CN(c2ccc(C(=O)Nc3ccc(OC(F)(F)F)cc3)cc2-c2cncs2)C[C@@H]1O (relative stereo) [Example 4, 4-(trans-3-Hydroxy-4-methoxypyrrolidin-1-yl)-3-(thiazol-5-yl)-N-(4-(trifluoromethoxy)phenyl)benzamide]

IC50 (ABL1 (64-515) [1]): 10 nM | IC50 (ABL1 (64-515) [2]): 1.4 nM
Structure (SMILES): O=C(Nc1ccc(OC(F)(F)F)cc1)c1cnc(N2C[C@H](CO)[C@@H](O)C2)c(-c2cncs2)c1 (relative stereo) [Example 17, 6-(trans-3-Hydroxy-4-(hydroxymethyl)pyrrolidin-1-yl)-5-(thiazol-5-yl)-N-(4-(trifluoromethoxy)phenyl)nicotinamide]

IC50 (ABL1 (64-515) [2]): 3.7 nM
Structure (SMILES): O=C(Nc1ccc(OC(F)(F)F)cc1)c1cnc(N2C[C@H](O)[C@@H](F)C2)c(-c2ccn[nH]2)c1 (relative stereo) [Example 74, 6-(trans-3-Fluoro-4-hydroxypyrrolidin-1-yl)-5-(1H-pyrazol-5-yl)-N-(4-(trifluoromethoxy)phenyl)nicotinamide]

IC50 (ABL1 (64-515) [1]): 4 nM | IC50 (ABL1 (64-515) [2]): 3.6 nM
Structure (SMILES): CO[C@H]1CN(c2ncc(C(=O)Nc3ccc(OC(F)(F)F)cc3)cc2-c2ccn[nH]2)C[C@@H]1N (relative stereo) [Example 78, 6-(trans-3-Amino-4-methoxypyrrolidin-1-yl)-5-(1H-pyrazol-5-yl)-N-(4-(trifluoromethoxy)phenyl)nicotinamide]

IC50 (ABL1 (64-515) [1]): 1 nM | IC50 (ABL1 (64-515) [2]): 0.7 nM
Structure (SMILES): CO[C@H]1CN(c2ncc(C(=O)Nc3ccc(OC(F)(F)Cl)cc3)cc2-c2ccn[nH]2)C[C@@H]1N (relative stereo) [Example 79, 6-(trans-3-Amino-4-methoxypyrrolidin-1-yl)-N-(4-(chlorodifluoromethoxy)phenyl)-5-(1H-pyrazol-5-yl)nicotinamide]

IC50 (ABL1 (64-515) [1]): 0.4 nM | IC50 (ABL1 (64-515) [2]): < 0.13 nM
Structure (SMILES): NC[C@H]1CN(c2ncc(C(=O)Nc3ccc(OC(F)(F)Cl)cc3)cc2-c2ccn[nH]2)C[C@H]1O (relative stereo) [Example 80, 6-(cis-3-(Aminomethyl)-4-hydroxypyrrolidin-1-yl)-N-(4-(chlorodifluoromethoxy)phenyl)-5-(1H-pyrazol-5-yl)nicotinamide]

IC50 (ABL1 (64-515) [1]): 10 nM
Structure (SMILES): O=C(Nc1ccc(OC(F)(F)F)cc1)c1cnc(N2CC[C@@H](O)C2)c(-c2nccs2)c1 [Example 9, (R)-6-(3-Hydroxypyrrolidin-1-yl)-5-(thiazol-2-yl)-N-(4-(trifluoromethoxy)phenyl)nicotinamide]

IC50 (ABL1 (64-515) [1]): < 3 nM
Structure (SMILES): Cc1ncc(-c2cc(C(=O)Nc3ccc(OC(F)(F)F)cc3)cnc2N2CC[C@@H](O)C2)s1 [Example 11, (R)-6-(3-Hydroxypyrrolidin-1-yl)-5-(2-methylthiazol-5-yl)-N-(4-(trifluoromethoxy)phenyl)nicotinamide]

IC50 (ABL1 (64-515) [1]): < 3 nM | IC50 (ABL1 (64-515) [2]): 5 nM
Structure (SMILES): CN(CCO)c1ccc(C(=O)Nc2ccc(OC(F)(F)F)cc2)cc1-c1cncs1 [Example 20, 4-((2-Hydroxyethyl)(methyl)amino)-3-(thiazol-5-yl)-N-(4-(trifluoromethoxy)phenyl)benzamide]

IC50 (ABL1 (64-515) [1]): 3 nM | IC50 (ABL1 (64-515) [2]): 4.2 nM
Structure (SMILES): O=C(Nc1ccc(OC(F)(F)F)cc1)c1ccc(N2C[C@H](O)[C@@H](O)C2)c(-c2ccc[nH]2)c1 [Example 28, 4-((3S,4S)-3,4-Dihydroxypyrrolidin-1-yl)-3-(1H-pyrrol-2-yl)-N-(4-(trifluoromethoxy)phenyl)benzamide]
